This note sets out measurements from patent US20080171710A1, “The Redox/Fyn/c-Cbl Pathway” (priority 2007, published 2008).

The target of one assay is Rho kinase (Rattus norvegicus, UniProt Q63644). To be noted: concentration of Y27632 used in O-2A/OPCs. How it is done: Rho kinase activity was quantified using the CycLex Rho-Kinase Assay kit (MBL international, Woburn, Mass., United States) as described. Cells were lysed and about 500 μg of total cell Jysates were immunoprecipitated with anti-ROCK1 antibody (Sigma), and the precipitates were re-suspended with kinase reaction buffer provided in the kit. Rho kinase activities of each sample were assayed using the kit according to the manufacturer's instructions.

The next assay concerns O-2A/OPCs. The assay is described as follows: In vitro BrdU incorporation assay. To be noted: together with MeHg. Type of assay: cell-based, rat. In outline: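 Surface antigens stained on live or 2% paraformaldehyde-fixed cells; intracellular ones after ice-cold methanol (4 min) or 0.5% Triton (15 min). Fluorescent secondary antibodies applied for 20 min.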

Rho kinase, sequence (Q63644 whole entry): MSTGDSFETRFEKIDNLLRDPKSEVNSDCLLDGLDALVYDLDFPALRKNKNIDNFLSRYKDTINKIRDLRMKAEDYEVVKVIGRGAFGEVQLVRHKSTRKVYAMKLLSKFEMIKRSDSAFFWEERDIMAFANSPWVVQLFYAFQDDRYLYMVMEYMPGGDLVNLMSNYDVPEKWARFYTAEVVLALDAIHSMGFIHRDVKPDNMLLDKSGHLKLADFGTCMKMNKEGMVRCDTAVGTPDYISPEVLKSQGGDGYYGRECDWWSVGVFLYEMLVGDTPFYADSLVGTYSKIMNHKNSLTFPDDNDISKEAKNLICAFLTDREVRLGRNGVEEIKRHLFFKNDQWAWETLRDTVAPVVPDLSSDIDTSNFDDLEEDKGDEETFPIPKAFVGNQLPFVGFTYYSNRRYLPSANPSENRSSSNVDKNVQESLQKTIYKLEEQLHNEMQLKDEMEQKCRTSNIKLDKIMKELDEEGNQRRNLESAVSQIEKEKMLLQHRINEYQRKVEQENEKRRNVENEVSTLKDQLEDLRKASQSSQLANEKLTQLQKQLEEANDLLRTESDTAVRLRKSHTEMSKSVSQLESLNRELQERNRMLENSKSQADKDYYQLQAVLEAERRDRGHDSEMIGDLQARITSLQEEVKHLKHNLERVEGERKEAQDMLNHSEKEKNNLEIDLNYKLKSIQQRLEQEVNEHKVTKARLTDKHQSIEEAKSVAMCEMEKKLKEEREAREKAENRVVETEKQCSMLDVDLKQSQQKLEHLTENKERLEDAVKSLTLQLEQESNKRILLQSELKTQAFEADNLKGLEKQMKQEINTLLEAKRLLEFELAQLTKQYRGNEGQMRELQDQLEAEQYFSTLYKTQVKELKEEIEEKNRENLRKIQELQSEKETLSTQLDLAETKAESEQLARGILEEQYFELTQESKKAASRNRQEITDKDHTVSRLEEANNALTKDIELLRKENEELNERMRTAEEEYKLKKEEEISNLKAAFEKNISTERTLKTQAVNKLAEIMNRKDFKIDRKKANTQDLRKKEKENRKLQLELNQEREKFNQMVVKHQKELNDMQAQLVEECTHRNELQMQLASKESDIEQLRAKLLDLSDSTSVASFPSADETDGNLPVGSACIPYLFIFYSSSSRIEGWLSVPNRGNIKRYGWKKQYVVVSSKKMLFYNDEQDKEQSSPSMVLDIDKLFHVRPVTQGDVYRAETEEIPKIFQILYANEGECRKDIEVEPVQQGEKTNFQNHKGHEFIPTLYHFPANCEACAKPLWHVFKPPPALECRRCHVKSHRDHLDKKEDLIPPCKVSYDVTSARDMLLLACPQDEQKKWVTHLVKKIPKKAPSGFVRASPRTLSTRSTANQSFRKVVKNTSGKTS

Turning to `C[C@@H](N)[C@H]1CC[C@H](C(=O)Nc2ccncc2)CC1` [Y27632], at Rho kinase, the Rho kinase activity entry is “successfully inhibited”. Moreover, in the assay on O-2A/OPCs, the “effect on MeHg-associated suppression of BrdU incorporation / cell division” value is on record as “did not alter”.
